From US12077503B2, “Substituted cyclic amides and their use as herbicides” (FMC CORPORATION, priority 2015, dated 2024)

What was measured:
Format in all cases: in vivo
[1] = tested on: barnyardgrass (Echinochloa crus-galli); assay: Test G Pre-Emergence Protocol; conditions: Echinochloa crus-galli, pre-emergence, 312 h, evaluated after 13 days
Method in brief: (§1)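 One day after sowing, pots are treated with a spray of test compound formulated in acetone/water 50:50 plus 0.5% Tween 20, giving 15.625, 62.5 or 250 g/ha. Evaluation on a 0–100 damage scale follows 13 days of glasshouse growth.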

[2] = tested on: corn (Zea mays); assay: Test G Pre-Emergence Protocol; conditions: Zea mays, pre-emergence, 312 h, evaluated after 13 days
Method in brief: as §1

[3] = tested on: giant foxtail (Setaria faberi); assay: Test G Pre-Emergence Protocol; conditions: Setaria faberi, pre-emergence, 312 h, evaluated after 13 days
Method in brief: as §1

[4] = tested on: ivy-leaved morning glory (Ipomoea hederacea); assay: Test G Pre-Emergence Protocol; conditions: Ipomoea, pre-emergence, 312 h, evaluated after 13 days
Method in brief: as §1

[5] = tested on: redroot pigweed (Amaranthus retroflexus); assay: Test G Pre-Emergence Protocol; conditions: Amaranthus retroflexus, pre-emergence, 312 h, evaluated after 13 days
Method in brief: as §1

[6] = tested on: velvetleaf (Abutilon theophrasti); assay: Test G Pre-Emergence Protocol; conditions: Abutilon theophrasti, pre-emergence, 312 h, evaluated after 13 days
Method in brief: as §1

[7] = tested on: barnyardgrass (Echinochloa crus-galli); assay: Test G Post-Emergence Protocol; conditions: Echinochloa crus-galli, post-emergence, 312 h
Method in brief: (§2)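 Post-emergence herbicidal damage, scored visually 0–100 at 13 days. Application at 15.625, 62.5 or 250 g/ha onto 8-day-old plants grown under glasshouse control.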

[8] = tested on: corn (Zea mays); assay: Test G Post-Emergence Protocol; conditions: Zea mays, post-emergence, 312 h
Method in brief: as §2

[9] = tested on: giant foxtail (Setaria faberi); assay: Test G Post-Emergence Protocol; conditions: Setaria faberi, post-emergence, 312 h
Method in brief: as §2

[10] = tested on: ivy-leaved morning glory (Ipomoea hederacea); assay: Test G Post-Emergence Protocol; conditions: Ipomoea, post-emergence, 312 h
Method in brief: as §2

[11] = tested on: redroot pigweed (Amaranthus retroflexus); assay: Test G Post-Emergence Protocol; conditions: Amaranthus retroflexus, post-emergence, 312 h
Method in brief: as §2

[12] = tested on: velvetleaf (Abutilon theophrasti); assay: Test G Post-Emergence Protocol; conditions: Abutilon theophrasti, post-emergence, 312 h
Method in brief: as §2

SMILES: COC(=O)c1sccc1NC(=O)[C@@H]1C(=O)N(C)C[C@H]1c1ccc(C(F)(F)F)cc1 (racemic) [Compound 1621]
- pest or weed control at 15.625 g/ha ([1]; 15.625 g ai/ha, read-out: Barnyard grass damage rating (100=total damage to plant; 0=no damage to plant)): 0%
- pest or weed control at 62.5 g/ha ([1]; 62.5 g ai/ha, 100=total damage to plant, 0=no damage to plant, read-out: plant damage rating, Barnyardgrass): 0%
- pest or weed control at 250 g/ha ([1]; 250 g ai/ha, read-out: Barnyardgrass damage rating (100=total damage to plant; 0=no damage to plant)): 0%
- plant injury at 15.625 g/ha ([2]; 15.625 g ai/ha, read-out: Corn damage rating (100=total damage to plant; 0=no damage to plant)): 0%
- plant injury at 62.5 g/ha ([2]; 62.5 g ai/ha, 100=total damage to plant, 0=no damage to plant, read-out: plant damage rating, Corn): 0%
- plant injury at 250 g/ha ([2]; 250 g ai/ha, read-out: Corn damage rating (100=total damage to plant; 0=no damage to plant)): 0%
- pest or weed control at 15.625 g/ha ([3]; 15.625 g ai/ha, read-out: Foxtail, Giant damage rating (100=total damage to plant; 0=no damage to plant)): 0%
- pest or weed control at 62.5 g/ha ([3]; 62.5 g ai/ha, 100=total damage to plant, 0=no damage to plant, read-out: plant damage rating, Foxtail, Giant): 0%
- pest or weed control at 250 g/ha ([3]; 250 g ai/ha, read-out: Foxtail, Giant damage rating (100=total damage to plant; 0=no damage to plant)): 0%
- pest or weed control at 15.625 g/ha ([4]; 15.625 g ai/ha, read-out: Morning-glory, Ivy-leaved damage rating (100=total damage to plant; 0=no damage to plant)): 0%
- pest or weed control at 62.5 g/ha ([4]; 62.5 g ai/ha, 100=total damage to plant, 0=no damage to plant, read-out: plant damage rating, Morningglory, Ivy-leaved): 0%
- pest or weed control at 250 g/ha ([4]; 250 g ai/ha, read-out: Morningglory, Ivy-leaved damage rating (100=total damage to plant; 0=no damage to plant)): 0%
- pest or weed control at 15.625 g/ha ([5]; 15.625 g ai/ha, read-out: Pigweed, Redroot damage rating (100=total damage to plant; 0=no damage to plant)): 0%
- pest or weed control at 62.5 g/ha ([5]; 62.5 g ai/ha, 100=total damage to plant, 0=no damage to plant, read-out: plant damage rating, Pigweed, Redroot): 0%
- pest or weed control at 250 g/ha ([5]; 250 g ai/ha, read-out: Pigweed, Redroot damage rating (100=total damage to plant; 0=no damage to plant)): 0%
- pest or weed control at 15.625 g/ha ([6]; 15.625 g ai/ha, read-out: Velvetleaf damage rating (100=total damage to plant; 0=no damage to plant)): 0%
- pest or weed control at 62.5 g/ha ([6]; 62.5 g ai/ha, 100=total damage to plant, 0=no damage to plant, read-out: plant damage rating, Velvetleaf): 0%
- pest or weed control at 250 g/ha ([6]; 250 g ai/ha, read-out: Velvetleaf damage rating (100=total damage to plant; 0=no damage to plant)): 0%
- pest or weed control at 15.625 g/ha ([7]; 15.625 g ai/ha, evaluated after 13 days (100=total damage to plant; 0=no damage to plant), read-out: Barnyardgrass damage rating): 10%
- pest or weed control at 62.5 g/ha ([7]; 62.5 g ai/ha, evaluated after 13 days, read-out: Barnyardgrass damage rating (100=total damage to plant; 0=no damage to plant)): 30%
- pest or weed control at 250 g/ha ([7]; 250 g ai/ha, evaluated after 13 days, read-out: damage to plant, Barnyardgrass (100=total damage to plant; 0=no damage to plant)): 30%
- plant injury at 15.625 g/ha ([8]; 15.625 g ai/ha, evaluated after 13 days (100=total damage to plant; 0=no damage to plant), read-out: Corn damage rating): 0%
- plant injury at 62.5 g/ha ([8]; 62.5 g ai/ha, evaluated after 13 days, read-out: Corn damage rating (100=total damage to plant; 0=no damage to plant)): 0%
- plant injury at 250 g/ha ([8]; 250 g ai/ha, evaluated after 13 days, read-out: damage to plant, Corn (100=total damage to plant; 0=no damage to plant)): 0%
- pest or weed control at 15.625 g/ha ([9]; 15.625 g ai/ha, evaluated after 13 days (100=total damage to plant; 0=no damage to plant), read-out: Foxtail, Giant damage rating): 10%
- pest or weed control at 62.5 g/ha ([9]; 62.5 g ai/ha, evaluated after 13 days, read-out: Foxtail, Giant damage rating (100=total damage to plant; 0=no damage to plant)): 40%
- pest or weed control at 250 g/ha ([9]; 250 g ai/ha, evaluated after 13 days, read-out: damage to plant, Foxtail, Giant (100=total damage to plant; 0=no damage to plant)): 40%
- pest or weed control at 15.625 g/ha ([10]; 15.625 g ai/ha, evaluated after 13 days (100=total damage to plant; 0=no damage to plant), read-out: Morningglory, Ivy-leaved damage rating): 0%
- pest or weed control at 62.5 g/ha ([10]; 62.5 g ai/ha, evaluated after 13 days, read-out: Morningglory, Ivy-leaved damage rating (100=total damage to plant; 0=no damage to plant)): 0%
- pest or weed control at 250 g/ha ([10]; 250 g ai/ha, evaluated after 13 days, read-out: damage to plant, Morningglory, Ivy-leaved (100=total damage to plant; 0=no damage to plant)): 0%
- pest or weed control at 15.625 g/ha ([11]; 15.625 g ai/ha, evaluated after 13 days (100=total damage to plant; 0=no damage to plant), read-out: Pigweed, Redroot damage rating): 0%
- pest or weed control at 62.5 g/ha ([11]; 62.5 g ai/ha, evaluated after 13 days, read-out: Pigweed, Redroot damage rating (100=total damage to plant; 0=no damage to plant)): 20%
- pest or weed control at 250 g/ha ([11]; 250 g ai/ha, evaluated after 13 days, read-out: damage to plant, Pigweed, Redroot (100=total damage to plant; 0=no damage to plant)): 10%
- pest or weed control at 15.625 g/ha ([12]; 15.625 g ai/ha, evaluated after 13 days (100=total damage to plant; 0=no damage to plant), read-out: Velvetleaf damage rating): 0%
- pest or weed control at 62.5 g/ha ([12]; 62.5 g ai/ha, evaluated after 13 days, read-out: Velvetleaf damage rating (100=total damage to plant; 0=no damage to plant)): 0%
- pest or weed control at 250 g/ha ([12]; 250 g ai/ha, evaluated after 13 days, read-out: damage to plant, Velvetleaf (100=total damage to plant; 0=no damage to plant)): 0%
